From US8426408B2, “Pyrimidine inhibitors of kinases” (AbbVie Inc., priority 2009, dated 2013)

Experiments:
Aurora B = biological target: T1, Aurora B (Homo sapiens, UniProt Q96GD4); test: Aurora B enzyme inhibition (time-resolved fluorescence, histone H3 peptide); type: biochemical; settings: 1 mM ATP
T1 construct: Active Aurora B enzyme (recombinant residues 1-344)
In short: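 IC50s came from an exponential fit of inhibition against inhibitor concentration, with phosphorylation read as the 665/615 nm time-resolved fluorescence ratio after EDTA stop using Eu-anti-phospho-H3 and SA-APC. The 1 h reaction used Aurora B 1-344 plus GST-INCENP, biotin-histone H3 1-21 peptide and 1 mM ATP in pH 7.4 HEPES buffer.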

Aurora A = biological target: T2, Aurora A (Homo sapiens, UniProt O14965); test: Aurora A enzyme inhibition (time-resolved fluorescence, STK substrate-2); type: biochemical; settings: 1 mM ATP
T2 sequence (O14965 1-403): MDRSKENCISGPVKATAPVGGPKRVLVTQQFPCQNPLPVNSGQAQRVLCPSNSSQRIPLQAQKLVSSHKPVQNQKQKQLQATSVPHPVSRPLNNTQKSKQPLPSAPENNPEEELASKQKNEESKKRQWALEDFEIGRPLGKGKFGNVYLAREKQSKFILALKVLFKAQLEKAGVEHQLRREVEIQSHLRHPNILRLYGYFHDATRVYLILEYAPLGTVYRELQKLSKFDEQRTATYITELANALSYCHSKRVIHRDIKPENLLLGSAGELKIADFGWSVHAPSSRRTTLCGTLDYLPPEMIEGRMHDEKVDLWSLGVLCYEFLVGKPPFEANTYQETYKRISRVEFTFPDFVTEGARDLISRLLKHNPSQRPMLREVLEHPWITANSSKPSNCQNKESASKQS
In short: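 Phosphorylation of biotinylated STK substrate-2 at 1 mM ATP, 1 h, Hepes buffer pH 7.4 (MgCl2, sodium orthovanadate, Triton X-100). After EDTA quench, 665/615 nm time-resolved fluorescence ratio read via europium anti-phospho antibody and SA-XL665; IC50 from exponential fit versus inhibitor concentration.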

KDR [1] = biological target: T3, KDR (Homo sapiens, UniProt P35968); test: KDR HTRF in vitro kinase assay; type: biochemical; set-up: purified enzyme (His6-KDR 789-1354, MW 63 kD); His6 (N); settings: 1 mM ATP; read-out: KDR enzyme inhibition data (Ki)
In short: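 His6-KDR 789-1354 (7 ng/well) with 0.5 μM biotinylated peptide substrate and 1 mM ATP in HEPES pH 7.1, MgCl2/MnCl2, 60 min at room temperature. EDTA-quenched, detected by streptavidin-XL-665 plus Eu-kryptate anti-phosphotyrosine HTRF after 3 h; IC50 from 620/665 nm ratio.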
Target sequence in this assay (P35968 789-1354): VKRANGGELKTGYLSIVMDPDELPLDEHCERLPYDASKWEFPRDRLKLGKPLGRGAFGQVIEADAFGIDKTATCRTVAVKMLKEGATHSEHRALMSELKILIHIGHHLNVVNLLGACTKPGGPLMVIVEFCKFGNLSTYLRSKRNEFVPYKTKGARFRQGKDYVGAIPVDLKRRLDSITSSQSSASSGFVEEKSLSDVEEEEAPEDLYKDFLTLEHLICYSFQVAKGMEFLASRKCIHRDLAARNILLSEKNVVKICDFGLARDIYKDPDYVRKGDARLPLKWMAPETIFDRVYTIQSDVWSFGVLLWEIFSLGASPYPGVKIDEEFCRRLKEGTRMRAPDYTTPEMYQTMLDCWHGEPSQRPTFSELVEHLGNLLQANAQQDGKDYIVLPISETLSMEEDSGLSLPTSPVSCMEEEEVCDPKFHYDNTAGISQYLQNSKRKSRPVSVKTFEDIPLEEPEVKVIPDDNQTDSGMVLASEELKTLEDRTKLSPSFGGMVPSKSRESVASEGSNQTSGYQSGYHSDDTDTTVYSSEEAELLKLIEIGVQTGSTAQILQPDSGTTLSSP

KDR [2] = biological target: T3, KDR; test: KDR cellular assay (KDR receptor phosphorylation ELISA); type: cell-based; set-up: expressed in transfected cells; host or cells: 3T3 (embryonic mouse) cells; settings: KDR transfected 3T3 (embryonic mouse) cells, VEGF stimulated; read-out: IC50 inhibition of KDR phosphorylation
Procedure: The ability of compounds to inhibit KDR receptor phosphorylation in cells was measured by ELISA following the protocol outlined below.
KDR transfected 3T3 (embryonic mouse) cells added to 96-well tissue culture plates at 20,000 cells/well.
Plates were covered and placed in a 37° C. humidified incubator with 5% CO2 overnight, to allow cells to adhere.
Coating solution was prepared: 500 l/vial PBS was added to 2 vials of anti-KDR antibody, then 1 ml solubilized anti-KDR antibody into 29.0 ml bicarbonate buffer. Coating solution was added to all wells at 150 µl/well (final amount anti-KDR=1 µg/well) and placed at 4° C. overnight.
Blocking solution (2.1 g dry milk+42 ml PBS=5% milk in PBS) was placed on a stir plate for 30 min.
Assay plates were washed twice with PBST, and 200 µl/well blocking solution was added to all wells. Assay plates were covered with plate sealers and placed in a 37° C. microplate chamber until just before cell lysate transfer.
Compound stocks were thawed or prepared in DMSO as 5 mM stocks.
Dilution medium (DM, 1% DMSO in DMEM) and compounds were diluted by half-log increments for concentration response analysis.
Conditioned media was dumped from the tissue culture plates, and plates were blotted dry.
Standard solution in DM, compound dilutions in DM, or DM (for high control, negative control, and reference wells) were added to the tissue culture plates, 25 µl/well. Each pair of tissue culture plates was prepared with the same compounds, solutions, and layout; and will be combined later; Tissue culture plates were covered and placed in the 37° C. microplate chamber for 20 min.
VEGF solution was prepared: 110 l VEGF stock+10.89 ml DM=100 ng/ml VEGF
VEGF solution or DM (for reference wells) was added to the tissue culture plates, 25 μl/well.
Tissue culture plates were covered and placed in the 37° C. microplate chamber for 10 min.
RIPA buffer was prepared (240 l NaVO3 stock+240 l PIC stock+24 l NaF stock+23.496 ml RIPA base) and added to the tissue culture plates, 50 µl/well.
Tissue culture plates were covered and placed on a Labline plate shaker for 10 min (speed about 5).
Assay plates were washed twice with PBST.
Cell lysates from matching wells of each pair of tissue culture plates were combined to =200 µl/well, and were pipetted up and down to mix. Cell lysates were transferred to the assay plates using the same layouts, 170 µl/well.
Assay plates were covered with plate sealers and placed on a Labline plate shaker for 2 hr (speed about 5).
Assay plates were washed 5 times with PBST.
Biotin antibody solution was prepared (16 l biotin antibody stock+32 ml PBST=2000× dilution) and added to the assay plates, 150 µl/well.
Assay plates were covered with plate sealers and placed on a Labline plate shaker for 90 min
Streptavidin-HRP solution was prepared (16 l streptavidin-HRP stock+32 ml PBST=2000× dilution) and added to the assay plates, 150 µl/well.
Assay plates were covered with plate sealers and placed on a Labline plate shaker for 60 min
Substrate was added to the assay plates, 100 µl/well.
As assay plates developed, the plates were each monitored on a Molecular Devices Spectramax set to 650 nm, until the signal in the high control wells was around 0.6 OD and the signal in the negative control wells was around 0.1-0.15 OD.
Stop solution was added to the assay plates, 100 µl/well.
The plates were read on a Molecular Devices Spectramax set to 450 nm.
Data was calculated by Assay Explorer, using same-plate high control wells as 0% and reference standard wells as 100% inhibition of KDR phosphorylation. IC50 values were calculated by non-linear regression analysis of the concentration response data.
Target sequence in this assay (P35968 20-1356): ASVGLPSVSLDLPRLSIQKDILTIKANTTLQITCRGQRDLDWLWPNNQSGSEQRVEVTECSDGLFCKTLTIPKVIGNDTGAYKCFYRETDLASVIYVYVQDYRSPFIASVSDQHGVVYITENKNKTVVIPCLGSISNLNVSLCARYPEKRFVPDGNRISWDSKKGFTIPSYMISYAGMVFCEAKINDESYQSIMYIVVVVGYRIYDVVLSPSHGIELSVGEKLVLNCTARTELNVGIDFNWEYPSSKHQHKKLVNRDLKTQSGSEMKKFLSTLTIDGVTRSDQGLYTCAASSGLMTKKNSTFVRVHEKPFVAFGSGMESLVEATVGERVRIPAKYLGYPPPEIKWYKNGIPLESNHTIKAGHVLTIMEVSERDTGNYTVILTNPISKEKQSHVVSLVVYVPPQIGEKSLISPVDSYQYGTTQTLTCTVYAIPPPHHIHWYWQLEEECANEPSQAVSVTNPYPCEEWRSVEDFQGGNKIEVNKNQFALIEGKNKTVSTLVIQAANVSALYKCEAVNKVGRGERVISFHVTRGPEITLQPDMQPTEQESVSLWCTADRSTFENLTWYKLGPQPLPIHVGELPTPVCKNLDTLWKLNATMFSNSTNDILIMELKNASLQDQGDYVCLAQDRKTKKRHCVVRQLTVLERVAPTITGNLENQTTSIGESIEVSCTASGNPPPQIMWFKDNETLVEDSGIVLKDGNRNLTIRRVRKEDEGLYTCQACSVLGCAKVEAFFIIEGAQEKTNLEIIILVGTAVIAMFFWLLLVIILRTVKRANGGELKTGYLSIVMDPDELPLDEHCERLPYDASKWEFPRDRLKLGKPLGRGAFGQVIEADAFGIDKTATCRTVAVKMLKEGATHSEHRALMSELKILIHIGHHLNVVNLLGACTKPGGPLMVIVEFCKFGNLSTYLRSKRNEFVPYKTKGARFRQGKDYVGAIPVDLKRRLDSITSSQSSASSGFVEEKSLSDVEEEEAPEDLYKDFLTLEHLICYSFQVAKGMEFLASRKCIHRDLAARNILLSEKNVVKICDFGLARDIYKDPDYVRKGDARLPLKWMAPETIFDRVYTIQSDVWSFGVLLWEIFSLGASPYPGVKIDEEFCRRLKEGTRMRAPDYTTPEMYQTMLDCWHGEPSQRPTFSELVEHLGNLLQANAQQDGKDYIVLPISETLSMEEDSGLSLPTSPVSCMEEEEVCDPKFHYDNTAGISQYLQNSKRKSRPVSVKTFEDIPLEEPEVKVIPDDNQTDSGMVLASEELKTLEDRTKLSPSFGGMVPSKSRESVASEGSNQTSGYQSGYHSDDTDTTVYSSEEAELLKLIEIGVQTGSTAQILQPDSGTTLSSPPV

T1 sequence (Q96GD4 whole entry, the tested form may be a part): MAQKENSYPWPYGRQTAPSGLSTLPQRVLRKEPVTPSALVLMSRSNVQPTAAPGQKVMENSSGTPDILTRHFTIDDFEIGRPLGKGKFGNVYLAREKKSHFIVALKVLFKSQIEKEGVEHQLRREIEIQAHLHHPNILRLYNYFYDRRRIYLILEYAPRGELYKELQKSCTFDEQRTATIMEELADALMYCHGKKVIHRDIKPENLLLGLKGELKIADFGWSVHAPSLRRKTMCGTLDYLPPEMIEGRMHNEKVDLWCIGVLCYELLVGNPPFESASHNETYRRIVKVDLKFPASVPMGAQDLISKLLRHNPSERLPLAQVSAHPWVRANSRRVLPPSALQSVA
T1 sequence (Q9NQS7 826-918 partner limits assumed): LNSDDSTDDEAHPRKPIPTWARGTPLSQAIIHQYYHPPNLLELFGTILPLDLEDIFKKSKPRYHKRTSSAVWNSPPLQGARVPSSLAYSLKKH

Row | Compound | Ki (Aurora B) [nM] | Ki (Aurora A) [nM] | Ki (KDR [1]) [nM] | IC50 (KDR [2]) [nM]
1 | Cc1c(Nc2ncc(Cl)c(N[C@H]3[C@@H](C(N)=O)C[C@H]4C[C@@H]3C4(C)C)n2)cnn1C [Example 184, (1R,2R,3S,5R)-2-({5-chloro-2-[(1,5-dimethyl-1H-pyrazol-4-yl)amino]pyrimidin-4-yl}amino)-6,6-dimethylbicyclo[3.1.1]heptane-3-carboxamide] | < 100 | < 100 | < 100 | 100 to 1000
2 | Cc1c(Nc2ncc(Br)c(N[C@H]3[C@@H](C(N)=O)C[C@H]4C[C@@H]3C4(C)C)n2)cnn1C [Example 185, (1R,2R,3S,5R)-2-({5-bromo-2-[(1,5-dimethyl-1H-pyrazol-4-yl)amino]pyrimidin-4-yl}amino)-6,6-dimethylbicyclo[3.1.1]heptane-3-carboxamide] | < 100 | < 100 | < 100 | 100 to 1000
3 | CC1(C)[C@H]2C[C@H](C(N)=O)[C@H](Nc3nc(Nc4cnn(Cc5ccccc5)c4)ncc3Cl)[C@@H]1C2 [Example 187, (1R,2R,3S,5R)-2-({2-[(1-benzyl-1H-pyrazol-4-yl)amino]-5-chloropyrimidin-4-yl}amino)-6,6-dimethylbicyclo[3.1.1]heptane-3-carboxamide] | < 100 | < 100 | < 100 | 100 to 1000
4 | CC1(C)[C@H]2C[C@H](C(N)=O)[C@H](Nc3nc(Nc4cnn(CCc5ccccc5)c4)ncc3Cl)[C@@H]1C2 [Example 188, (1R,2R,3S,5R)-2-[(5-chloro-2-{[1-(2-phenylethyl)-1H-pyrazol-4-yl]amino}pyrimidin-4-yl)amino]-6,6-dimethylbicyclo[3.1.1]heptane-3-carboxamide] | < 100 | < 100 | < 100 | 100 to 1000
5 | CC1(C)[C@H]2C[C@H](C(N)=O)[C@H](Nc3nc(Nc4cnn(-c5ccccc5)c4)ncc3Cl)[C@@H]1C2 [Example 189, (1R,2R,3S,5R)-2-({5-chloro-2-[(1-phenyl-1H-pyrazol-4-yl)amino]pyrimidin-4-yl}amino)-6,6-dimethylbicyclo[3.1.1]heptane-3-carboxamide] | < 100 | < 100 | < 100 | 100 to 1000
6 | CN1CCN(CCn2cc(Nc3ncc(Cl)c(N[C@H]4[C@@H](C(N)=O)C[C@H]5C[C@@H]4C5(C)C)n3)cn2)CC1 [Example 190, (1R,2R,3S,5R)-2-{[5-chloro-2-({1-[2-(4-methylpiperazin-1-yl)ethyl]-1H-pyrazol-4-yl}amino)pyrimidin-4-yl]amino}-6,6-dimethylbicyclo[3.1.1]heptane-3-carboxamide] | < 100 | 100 to 1000 | 100 to 1000 | 100 to 1000
7 | CC1(C)[C@H]2C[C@H](C(N)=O)[C@H](Nc3nc(Nc4cnn(C5CCNCC5)c4)ncc3Cl)[C@@H]1C2 [Example 191, (1R,2R,3S,5R)-2-[(5-chloro-2-{[1-(piperidin-4-yl)-1H-pyrazol-4-yl]amino}pyrimidin-4-yl)amino]-6,6-dimethylbicyclo[3.1.1]heptane-3-carboxamide] | < 100 | < 100 | < 100 | 100 to 1000
8 | (1S,2S,3R,4R)-3-[(5-bromo-2-{[1-(3-fluoro-4-methoxybenzyl)-1H-pyrazol-4-yl]amino}pyrimidin-4-yl)amino]bicyclo[2.2.1]hept-5-ene-2-carboxamide [Example 193] | < 100 | < 100 | < 100 | < 100

More lines, now with the values ahead:

Row | Ki (Aurora B) [nM] | Ki (Aurora A) [nM] | Ki (KDR [1]) [nM] | IC50 (KDR [2]) [nM] | Compound
9 | < 100 | < 100 | < 100 | 100 to 1000 | Cn1cc(Nc2ncc(Cl)c(Nc3ccc4[nH]ncc4c3)n2)cn1 [Example 175, 5-chloro-N^4-(1H-indazol-5-yl)-N^2-(1-methyl-1H-pyrazol-4-yl)pyrimidine-2,4-diamine]
10 | < 100 | < 100 | < 100 | 100 to 1000 | OCCn1cc(Nc2ncc(Cl)c(Nc3ccc4[nH]ncc4c3)n2)cn1 [Example 180, 2-(4-{[5-chloro-4-(1H-indazol-5-ylamino)pyrimidin-2-yl]amino}-1H-pyrazol-1-yl)ethanol]
11 | < 100 | < 100 | < 100 | 100 to 1000 | Cn1cc(Nc2ncc(Br)c(N[C@H]3[C@@H](C(N)=O)C[C@H]4C[C@@H]3C4(C)C)n2)cn1 [Example 182, (1R,2R,3S,5R)-2-({5-bromo-2-[(1-methyl-1H-pyrazol-4-yl)amino]pyrimidin-4-yl}amino)-6,6-dimethylbicyclo[3.1.1]heptane-3-carboxamide]
12 | < 100 | < 100 | < 100 | 100 to 1000 | CCn1cc(Nc2ncc(Br)c(N[C@H]3[C@@H](C(N)=O)C[C@H]4C[C@@H]3C4(C)C)n2)cn1 [Example 183, (1R,2R,3S,5R)-2-({5-bromo-2-[(1-ethyl-1H-pyrazol-4-yl)amino]pyrimidin-4-yl}amino)-6,6-dimethylbicyclo[3.1.1]heptane-3-carboxamide]
